Data from article PMC10857328, “Utilization of Biopolymer-Based Lutein Emulsion as an Effective Delivery System to Improve Lutein Bioavailability in Neonatal Rats” (Nutrients, 2024).
Marks after values point to notes of the source that are not given here.

Test: Daily dosing study 1 (maternal purified diet with no lutein): serum and tissue lutein concentrations
Format: in vivo, neonatal Sprague-Dawley rats
Conditions: for Lutein concentration, serum: 2 mg/kg daily oral P5-P18, sampled P19
Method: Serum and tissue lutein concentration was determined using an ultra-performance liquid chromatography (UPLC) system (Waters, Milford, MA, USA) equipped with a photo-diode array detector (PDA)/MS/MS, according to our well-established methods with slight modification. As for the serum, 100 μL of the sample was incubated with 2 mL of 100% ethanol at room temperature for an hour for lipid extraction. For the tissues, ~0.1 g of the sample was weighed, homogenized, and incubated with 2 mL of 100% ethanol at room temperature for an hour. An amount of 1 mL of 5% (w/v) potassium hydroxide was added to the sample and incubated in a water bath at 60 °C for 45 min for saponification. Upon saponification, samples were allowed to cool for about 15 min, and then an addition of 4 mL of hexane containing 0.1% butylated hydroxytoluene (w/v) and 2 mL of deionized water was added. The mixture was vortexed for 20 s and centrifuged at 1600 rpm at 25 °C for 15 min. The upper layer was collected following centrifugation and dried under nitrogen at 37 °C. The dried sample was then rinsed twice with hexane, dried, and reconstituted with 100 µL of acetonitrile-methanol. The reconstituted sample was centrifuged for 2 min to remove any possible precipitation. For UPLC analysis, 10 µL of the sample was injected into the Waters Acquity UPLC HSS T3 column. Solvent A was acetonitrile: methanol (50:50, v/v), and solvent B was 100% isopropanol. The mobile phase was made up of solvent A and solvent B in a volume ratio of 95:5 (v/v). The flow rate was set as 0.5 mL/min, and the column temperature was maintained at 35 °C. The detection wavelength was set at 446 nm. Retinyl acetate (Sigma-Aldrich, St. Louis, MO, USA) was used as the internal standard. To determine the effects of daily consumption of CTA-stabilized lutein emulsion on tissue lutein status, two daily dosing studies were conducted. The procedures were approved by the Institutional Animal Care and Use Committee of the University of Alabama (Number: 21-02-4373, 4 February 2021). For daily dosing study 1 (Figure 1B), on P5, rat pups (n = 8–9/group) were randomly selected from the litters and received an oral dose of either free lutein (i.e., lutein ester dissolved in olive oil) or lutein emulsion both containing 2 mg/kg body weight of lutein. […] Dosing was repeated daily until P18. The dosage was determined from previous research in both rodent and human newborns and was also established as an Acceptable Daily Intake for lutein by the Joint Food and Agricultural Organization/World Health Organization. On P19, pups were euthanized. Rats are known to wean between P19 and P21 [47]. Blood from vena cava, liver, spleen, brain, eye, kidney, lung, white adipose tissue (WAT), and brown adipose tissue (BAT) were collected. Blood samples were centrifuged to obtain serum. Serum and collected tissues were frozen at −80 °C until analysis. Serum and tissue lutein concentrations were analyzed using the methods described in Section 2.3.2.

[1] = 2 mg/kg daily oral P5-P18, maternal purified diet with no lutein
[2] = 2 mg/kg daily oral P5-P18, maternal purified diet with no lutein, listed as free lutein
[3] = daily dosing study 1 vs study 2

Q: With Lutein ester [Free Lutein] as the substance, how does the “Lutein concentration, serum” value (maternal purified diet with no lutein) read?
A: 112.42 ± 34.60 ^a nmol/L

Q: And the “Lutein concentration, serum” value (maternal purified diet with no lutein, listed as free lutein)?
A: 112.42 ± 34.60 nmol/L

Q: And the “Lutein concentration, BAT” value [1]?
A: 0.02 ± 0.002 ^a nmol/g

Q: What about the “Lutein concentration, WAT” value [1] of the same substance?
A: 0.08 ± 0.04 ^a nmol/g

Q: What about the “Lutein concentration, brain” value [1] of the same substance?
A: 0.04 ± 0.01 ^b nmol/g

Q: And the “Lutein concentration, eye” value [1]?
A: 0.04 ± 0.01 ^a nmol/g

Q: And the “Lutein concentration, kidney” value [1]?
A: 0.12± 0.04 ^b nmol/g

Q: What about the “Lutein concentration, liver” value [1] of the same substance?
A: 2.52 ± 1.29 ^b nmol/g

Q: What about the “Lutein concentration, lung” value [1] of the same substance?
A: 0.06 ± 0.01 ^a nmol/g

Q: What about the “Lutein concentration, spleen” value [1] of the same substance?
A: 0.66 ± 0.18 ^a nmol/g

Q: And the “Lutein concentration, BAT” value [2]?
A: 0.02 ± 0.002 nmol/g

Q: And the “Lutein concentration, brain” value [2]?
A: 0.04 ± 0.01 nmol/g

Q: And the “Lutein concentration, eye” value [2]?
A: 0.02 ± 0.007 nmol/g

Q: And the “Lutein concentration, kidney” value [2]?
A: 0.12 ± 0.04 nmol/g

Q: What about the “Lutein concentration, liver” value [2] of the same substance?
A: 2.52 ± 1.29 nmol/g

Q: What about the “Lutein concentration, lung” value [2] of the same substance?
A: 0.06 ± 0.01 nmol/g

Q: What about the “Lutein concentration, spleen” value [2] of the same substance?
A: 0.66 ± 0.18 nmol/g

Q: And the “Fold higher eye lutein concentration, no-lutein maternal diet vs diet containing lutein” value [3]?
A: 2.00 fold

Q: And the “Fold higher liver lutein concentration, no-lutein maternal diet vs diet containing lutein” value [3]?
A: 2.04 fold

Q: And the “Fold higher serum lutein concentration, no-lutein maternal diet vs diet containing lutein” value [3]?
A: 6.38 fold
